From patent US6368598B1, “Drug complex for treatment of metastatic prostate cancer” (priority 1996, dated 2002)
Residues, ends and D or L forms follow the SMILES beside them. *: point of attachment. pNA = O=[N+]([O-])c1ccc(N*)cc1; MeOSuc = COC(=O)CCC(=O)*

Assays:
[1] = after administration to a person; cited from earlier work
[2] = system: DU-145 prostate cancer cells; test: Effect of TG and RT on proliferation of DU-145 prostate cancer cells (cell count, trypan blue); type: cell-based, human; conditions: for Total Number of Cells per Dish: counted at 48 hours
PC3 cells = test: Effect of TG and RT on clonogenic survival of PC3 cells; type: cell-based, human; conditions: for Surviving Fraction (SF) (PE treated/PE control): plated at 24 hours
Protocol: PC3 and DU-145 androgen-independent human prostate cancer cell lines obtained from the American Tissue Culture Collection (ATCC) are used for in vitro studies. Cells are grown as monolayer cultures in RPMI 1640 medium supplemented with 10% fetal bovine serum, 2 mM glutamine and antibiotics. Radiation survival curves and radiation-induced apoptotic DNA fragmentation patterns in these cell lines are already established in the laboratory. Cells are treated with this drug, carrier-peptide, or carrier-peptide-drug complex with or without radiation. After 24 hours, the cells are trypsinized and plated for clonogenic survival studies. Apoptotic response to the treatments is determined by: 1) agarose gel electrophoresis analysis of DNA fragmentation at 48 and 72 hours after treatment, 2) morphological observations after staining with DAPI, and 3) terminal deoxytransferase-mediated dUTP Nick End Labeling (TUNEL) assay.

[3] = system: human DU-145 prostate carcinoma xenograft; test: Growth delay of human DU-145 prostate carcinoma xenograft in male SCID mice; type: in vivo
Protocol: Two human prostate carcinoma tumor lines grown as xenografts in male SCID mice are used: the human DU-145 prostate carcinoma which is not androgen dependent and the human LNCaP prostate carcinoma which produces PSA and has a well characterized androgen receptor and response to androgens. The drug complexes are administered up to maximally tolerated doses alone and in conjunction with fractionated radiation therapy (^137Cs Gamma Cell 40) delivered to the tumor bearing limb.
The progress of each tumor is assessed thrice weekly by caliper measurements until the tumors reach 2000 mm^3. Tumor growth delay is calculated as the number of days for each tumor to reach a volume of 500 mm^3 as compared to untreated controls. The efficacy of combination treatments is assessed using isobologram analysis for determination of additivity/synergy.
Male SCID mice bearing the human DU-145 prostate carcinoma Xenograft growing subcutaneously in a hind-limb were treated daily with TG (0.5 mg/kg) by IP injection from day 4-18 post tumor cell implantation. Some animal groups also received fractionated RT locally to the tumor bearing region on days 7-11 or days 7-11 and 14-18.

[4] = system: rat and human androgen independent prostate cancer cell lines; conditions: 500 nm thapsigargin, cited from earlier work
[5] = system: Ca++-ATPase pumps of the endoplasmic reticulum; conditions: cited from earlier work
[6] = system: pumps of erythrocytes, plasma, or mitochondrial membranes; conditions: cited from earlier work
[7] = Cleavage in newborn calf serum; type: in vitro ADME
Protocol: (§1) A tyrosine tripeptide (compound 1 in FIG. 5) was prepared using methods known to those in the peptide chemistry art. It is known that PSA cleaves its para-nitroanilide (pNA) derivative at the tyrosine site (compound 2 in FIG. 5). (Christensson, A. et al., Eur. J Biochem., 194:755-763 (1990)). It is also known that the “released” pNA makes it possible to study this reaction colormetrically.

[8] = Cleavage in pooled human serum; type: in vitro ADME
Protocol: as §1

For `NCCCCNCCCF` [N-3 fluoropropylputrescine], the “distribution to prostate and bone relative to blood and muscle” value [1] is listed as “selectively distributed to prostate and bone”.

For `C/C=C(/C)C(=O)O[C@H]1C(C)=C2[C@H]([C@@H]1OC(=O)CCCCCCC)[C@@](C)(OC(C)=O)C[C@H](OC(=O)CCC)[C@@]1(O)[C@H]2OC(=O)[C@@]1(C)O` [Thapsigargin], the “Total Number of Cells per Dish” value ([2]; TG 20 nM, 0 Gy) was 1.0 10^6, the “Total Number of Cells per Dish” value ([2]; TG 20 nM, 2 Gy 2 hours after TG) was 0.8 10^6 and the “Total Number of Cells per Dish” value ([2]; TG 20 nM, 4 Gy 2 hours after TG) was 0.3 10^6. For the same compound, the “Total Number of Cells per Dish” value ([2]; TG 20 nM, 8 Gy 2 hours after TG) was 0.4 10^6, the “Total Number of Cells per Dish” value ([2]; TG 100 nM, 0 Gy) was 0.7 10^6 and the “Total Number of Cells per Dish” value ([2]; TG 100 nM, 2 Gy 2 hours after TG) was 0.5 10^6. For the same compound, the “Total Number of Cells per Dish” value ([2]; TG 100 nM, 4 Gy 2 hours after TG) was 0.5 10^6, the “Total Number of Cells per Dish” value ([2]; TG 100 nM, 8 Gy 2 hours after TG) was 0.4 10^6 and the “Total Number of Cells per Dish” value ([2]; TG 400 nM, 0 Gy) was 0.7 10^6. For the same compound, the “Total Number of Cells per Dish” value ([2]; TG 400 nM, 2 Gy 2 hours after TG) was 0.4 10^6, the “Total Number of Cells per Dish” value ([2]; TG 400 nM, 4 Gy 2 hours after TG) was 0.3 10^6 and the “Total Number of Cells per Dish” value ([2]; TG 400 nM, 8 Gy 2 hours after TG) was 0.3 10^6. The “cell proliferation in vitro (result in words)” value ([2]; summary of Table 1) was “inhibits cell proliferation in vitro”, the “Surviving Fraction (SF) (PE treated/PE control)” value (shortened to “Surviving Fraction (SF)”) (PC3 cells; TG 20 nM, 0 Gy) was 0.69 and the “NET survival (SF/TG toxicity)” value (PC3 cells; TG 20 nM, 2 Gy) was 0.61. For the same compound, the “Surviving Fraction (SF)” value (PC3 cells; TG 20 nM, 2 Gy) was 0.42, the “NET survival (SF/TG toxicity)” value (PC3 cells; TG 20 nM, 4 Gy) was 0.33 and the “Surviving Fraction (SF)” value (PC3 cells; TG 20 nM, 4 Gy) was 0.23. The “Surviving Fraction (SF)” value (PC3 cells; TG 50 nM, 0 Gy) was 0.80, the “NET survival (SF/TG toxicity)” value (PC3 cells; TG 50 nM, 2 Gy) was 0.49 and the “Surviving Fraction (SF)” value (PC3 cells; TG 50 nM, 2 Gy) was 0.39. For the same compound, the “NET survival (SF/TG toxicity)” value (PC3 cells; TG 50 nM, 4 Gy) was 0.29, the “Surviving Fraction (SF)” value (PC3 cells; TG 50 nM, 4 Gy) was 0.23 and the “Surviving Fraction (SF)” value (PC3 cells; TG 100 nM, 0 Gy) was 0.62. The “NET survival (SF/TG toxicity)” value (PC3 cells; TG 100 nM, 2 Gy) was 0.40, the “Surviving Fraction (SF)” value (PC3 cells; TG 100 nM, 2 Gy) was 0.25 and the “NET survival (SF/TG toxicity)” value (PC3 cells; TG 100 nM, 4 Gy) was 0.30. For the same compound, the “Surviving Fraction (SF)” value (PC3 cells; TG 100 nM, 4 Gy) was 0.18, the “Surviving Fraction (SF)” value (PC3 cells; TG 200 nM, 0 Gy) was 0.58 and the “NET survival (SF/TG toxicity)” value (PC3 cells; TG 200 nM, 2 Gy) was 0.43. For the same compound, the “Surviving Fraction (SF)” value (PC3 cells; TG 200 nM, 2 Gy) was 0.25, the “NET survival (SF/TG toxicity)” value (PC3 cells; TG 200 nM, 4 Gy) was 0.22 and the “Surviving Fraction (SF)” value (PC3 cells; TG 200 nM, 4 Gy) was 0.13. For the same compound, the “Surviving Fraction (SF)” value (PC3 cells; TG 400 nM, 0 Gy) was 0.60, the “NET survival (SF/TG toxicity)” value (PC3 cells; TG 400 nM, 2 Gy) was 0.42 and the “Surviving Fraction (SF)” value (PC3 cells; TG 400 nM, 2 Gy) was 0.25. The “NET survival (SF/TG toxicity)” value (PC3 cells; TG 400 nM, 4 Gy) was 0.22, the “Surviving Fraction (SF)” value (PC3 cells; TG 400 nM, 4 Gy) was 0.13 and the “clonogenic cell survival in vitro (result in words)” value (PC3 cells; summary of Table 2) was “inhibits clonogenic cell survival in vitro”. The “tumor growth delay, combination with RT” value ([3]; TG 0.5 mg/kg daily IP day 4-18 with fractionated RT days 7-11) was “the independent effects of TG and RT were additive”, the “tumor growth delay, combination with RT extended to 2 weeks” value ([3]; TG 0.5 mg/kg daily IP day 4-18 with fractionated RT days 7-11 and 14-18) was “the additional benefit of the TG administration was maintained” and the tumor growth delay ([3]; TG 0.5 mg/kg daily IP, day 4-18, alone, FIG. 1) was “produced a measurable tumor growth delay”. The apoptosis ([4]; within 72 to 96 hours) was “undergo apoptosis”, the clonogenic potential ([4]; within 72 to 96 hours) was “lose their clonogenic potential” and the “intracellular Ca++” value ([4]; lines with or without p53 expression) was “elevation of intracellular Ca^++”. For the same compound, the “inhibition of Ca++-ATPase pumps of the endoplasmic reticulum” value [5] was “specifically inhibits” and the “inhibition of pumps of erythrocytes, plasma, or mitochondrial membranes” value [6] was “not”.

For `COC(=O)CCC(=O)N[C@@H](CCCNC(=N)N)C(=O)N1CCC[C@H]1C(=O)N[C@@H](Cc1ccc(O)cc1)C(=O)Nc1ccc([N+](=O)[O-])cc1` [compound 2] (MeOSuc-Arg-Pro-Tyr-pNA), the “cleavage, release of pNA” value [7] was “neither newborn calf serum, nor pooled human serum cleaved” and the “cleavage, release of pNA” value [8] was “neither newborn calf serum, nor pooled human serum cleaved”.
